Experimental data taken from the supplement of paper PMC12137928.
Counter-ions that a name gives are not always drawn.

System: HCT116
Settings: 72 h
Summary of the method: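 For IC50 and maximal efficacy, four-parameter Hill fits were used. Input values were CellTiter-Glo luminescence from HCT116 cells seeded at 250 per well in 1536-well plates, normalized to vehicle (0%) and positive control (-100%). Pattern correction followed normalization.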

IC50 cell viability (ICRF193 0 nM) [µM] | IC50 cell viability (ICRF193 200 nM) [µM] | Structure (SMILES)
> 45.8 | > 45.8 | CCCCCCCCCCCCSCCOCCOCCOCCOCCOCCOCCOCCOCCOCCO [Laureth 10s]
> 45.8 | > 45.8 | COc1cc2/c(=N/c3ccc(Br)cc3F)nc[nH]c2cc1OCC1CCN(C)CC1 [Vandetanib]
> 45.8 | > 45.8 | CCCC(CCC)C(=O)O[C@H]1C[C@H]2CC[C@@H](C1)[N+]2(C)C [Anisotropine methylbromide]
> 45.8 | > 45.8 | CCOC(=O)c1cc(=O)c2c(OCC(COc3cccc4oc(C(=O)OCC)cc(=O)c34)OC(=O)[C@@H](N)CCCCN)cccc2o1 [Cromoglicate lisetil]
> 45.8 | > 45.8 | CCOC(=O)c1ccccc1O [Ethyl salicylate]
> 45.8 | > 45.8 | OC[C@H]1O[C@@H](c2ccc(F)c(Cc3cc4ccccc4s3)c2)[C@H](O)[C@@H](O)[C@@H]1O [Ipragliflozin]
> 45.8 | > 45.8 | CC1CC(OC(=O)c2ccccc2O)CC(C)(C)C1 (centres undefined) [3,3,5-Trimethylcyclohexyl salicylate]
> 45.8 | > 45.8 | CC(=O)c1ccc2c(c1)N(CCCN(C)C)c1ccccc1S2 [Acetopromazine maleate]
> 45.8 | > 45.8 | CCC(=O)O[C@@H]1CC(=O)O[C@H](C)C/C=C/C=C/[C@H](O)[C@H](C)C[C@H](CC=O)[C@H](O[C@@H]2O[C@H](C)[C@@H](O[C@H]3C[C@@](C)(O)[C@@H](OC(=O)CC)[C@H](C)O3)[C@H](N(C)C)[C@H]2O)[C@H]1OC [Midecamycin]
> 45.8 | > 45.8 | CC(=NNC(=O)c1ccncc1)C(=O)O [Isoniazid pyruvate]
> 45.8 | > 45.8 | C[C@@H]1O[C@@H](OC[C@H]2O[C@@H](Oc3c(-c4ccc(O)c(O)c4)oc4cc(O)cc(O)c4c3=O)[C@H](O)[C@@H](O)[C@@H]2O)[C@H](O)[C@H](O)[C@H]1O [Rutin trihydrate]
> 45.8 | > 45.8 | CN1CC(O)C2=C/C(=N/NC(N)=O)C(=O)C=C21 (centres undefined) [Adrenochrome semicarbazone]
> 45.8 | > 45.8 | CN(C(=O)C(Cl)Cl)c1ccc(OC(=O)c2ccco2)cc1 [Diloxanide furoate]
> 45.8 | > 45.8 | O=P(O)(O)C(Sc1ccc(Cl)cc1)P(=O)(O)O [Tiludronate disodium salt hydrate]
> 45.8 | > 45.8 | COc1cc(NS(=O)(=O)c2ccc(N)cc2)nc(OC)n1 [Sulfadimethoxine]
> 45.8 | > 45.8 | CC(C)(C)c1ccc2c(S(=O)(=O)O)c(C(C)(C)C)ccc2c1 [DIBUNATE SODIUM]

IC50 cell viability (ICRF193 0 nM) [µM] | IC50 cell viability (ICRF193 200 nM) [µM] | Structure (SMILES)
> 45.8 | > 45.8 | COc1nc2ccc(Br)cc2cc1[C@@H](c1ccccc1)[C@@](O)(CCN(C)C)c1cccc2ccccc12 [Bedaquiline (TMC-207)]
> 45.8 | > 45.8 | CC(C)(C)NC(=O)[C@@H]1CN(Cc2cccnc2)CCN1C[C@@H](O)C[C@@H](Cc1ccccc1)C(=O)N[C@H]1c2ccccc2C[C@H]1O [Indinavir sulfate]
> 45.8 | > 45.8 | CC(C)CCC[C@@H](C)[C@H]1CC[C@H]2[C@@H]3CC[C@H]4C[C@@H](O)CC[C@]4(C)[C@H]3CC[C@]12C [5alpha-Cholestan-3beta-ol]
> 45.8 | > 45.8 | C[C@@H]1CN(c2c(F)c(F)c3c(=O)c(C(=O)O)cn(C4CC4)c3c2F)C[C@H](C)N1 [Orbifloxacin]
> 45.8 | > 45.8 | CC(O)(P(=O)(O)O)P(=O)(O)O [Etidronate disodium]
> 45.8 | > 45.8 | O.O.O.O.O=C([O-])CC(O)(CC(=O)[O-])C(=O)[O-].[Li+].[Li+].[Li+] [LITHIUM CITRATE]
> 45.8 | > 45.8 | C[C@H](N[C@@H](CCc1ccccc1)C(=O)O)C(=O)N1CCC[C@H]1C(=O)O [Enalapril acid]
> 45.8 | > 45.8 | CC(C)=CCC/C(C)=C/CC/C(C)=C/CC/C=C(\C)CC/C=C(\C)CCC=C(C)C [Squalene]
> 45.8 | > 45.8 | O=S(=O)(c1cccc2cnccc12)N1CCCNCC1 [Fasudil]
> 45.8 | > 45.8 | CCOc1ccc2nc(S(N)(=O)=O)sc2c1 [Ethoxzolamide]
> 45.8 | > 45.8 | N=C(N)NCC1COC2(CCCCC2)O1 (centres undefined) [Guanadrel sulfate]
> 45.8 | > 45.8 | Cc1nccn1CCC(C(N)=O)(c1ccccc1)c1ccccc1 [Imidafenacin]
> 45.8 | > 45.8 | NC(=O)[C@@H]1CC[C@@H]2CN1C(=O)N2OS(=O)(=O)O [Avibactam sodium]
> 45.8 | > 45.8 | CCCCC(=O)O[C@]1(C(=O)COC(C)=O)CC[C@H]2[C@@H]3CCC4=CC(=O)C=C[C@]4(C)[C@H]3[C@@H](O)C[C@@]21C [PREDNISOLONE VALERATE ACETATE]
> 45.8 | > 45.8 | CC1OC2(CS1)CN1CCC2CC1 (centres undefined) [Cevimeline hydrochloride]

Further lines, the compound ahead of its results:

Structure (SMILES) | IC50 cell viability (ICRF193 0 nM) [µM] | IC50 cell viability (ICRF193 200 nM) [µM]
CNC(=O)Oc1cccc2ccccc12 [Carbaryl] | > 45.8 | > 45.8
C[C@]12C=CC(=O)C=C1[C@@H](F)C[C@@H]1[C@@H]2[C@@H](O)C[C@@]2(C)[C@H]1CC[C@]2(O)C(=O)CO [Fluprednisolone] | > 45.8 | > 45.8
CCCCCCC(=O)O[C@H]1CC[C@H]2[C@@H]3CC[C@H]4CC(=O)C=C(C)[C@]4(C)[C@H]3CC[C@]12C [Methenolone enanthate] | > 45.8 | > 45.8
N.N.O=C([O-])C[O-].[Pt+2] [Nedaplatin] | > 45.8 | > 45.8
Cc1ccc(C)c(OCCCC(C)(C)C(=O)O)c1 [Gemfibrozil] | > 45.8 | > 45.8
Cc1ccc(S(=O)(=O)NC(=O)NN2CC3CCCC3C2)cc1 (centres undefined) [Gliclazide] | > 45.8 | > 45.8
CCCNC(C)C(=O)Nc1ccccc1C (centres undefined) [Prilocaine hydrochloride] | > 45.8 | > 45.8
CCOC(=O)[N-]c1c[n+](N2CCOCC2)no1 [Molsidomine] | > 45.8 | > 45.8
COc1ccc(C2C(=O)c3ccccc3C2=O)cc1 [Anisindione] | > 45.8 | > 45.8
COc1cc2nc(N(C)CCCNC(=O)C3CCCO3)nc(N)c2cc1OC (centres undefined) [Alfuzosin hydrochloride] | > 45.8 | > 45.8
Cc1cccc(O)c1 [m-Cresol] | > 45.8 | > 45.8
NCCc1ccc(O)c(O)c1 [Dopamine hydrochloride] | > 45.8 | > 45.8
CC(C)[C@H](N)C(=O)O [L-Valine] | > 45.8 | > 45.8
CCCCCCCCCCCCCC(=O)OCC(COP(=O)([O-])OCC[N+](C)(C)C)OC(=O)CCCCCCCCCCCCC (racemic) [1,2-Ditetradecanoyl-rac-glycerol-3-phosphocholine] | > 45.8 | > 45.8
NS(=O)(=O)c1cc(C2(O)NC(=O)c3ccccc32)ccc1Cl (centres undefined) [Chlorthalidone] | > 45.8 | > 45.8
CN1CCN(CC(=O)N2c3ccccc3C(=O)Nc3cccnc32)CC1 [Pirenzepine] | > 45.8 | > 45.8

Structure (SMILES) | IC50 cell viability (ICRF193 0 nM) [µM] | IC50 cell viability (ICRF193 200 nM) [µM]
CC[N+](CC)(CCNC(=O)C(=O)NCC[N+](CC)(CC)Cc1ccccc1Cl)Cc1ccccc1Cl [Ambenonium chloride] | > 45.8 | > 45.8
CC(=O)[C@@]1(O)CC[C@H]2[C@@H]3CCC4=CC(=O)CC[C@@H]4[C@H]3CC[C@@]21C [Gestonorone] | > 45.8 | > 45.8
CC(=O)NCc1c(I)c(NC(C)=O)c(I)c(C(=O)O)c1I [Iodamide] | > 45.8 | > 45.8
CO[C@@H]1[C@@H](OC(N)=O)[C@@H](O)[C@H](Oc2ccc3c(O)c(NC(=O)c4ccc(O)c(CC=C(C)C)c4)c(=O)oc3c2C)OC1(C)C [Novobiocin sodium] | > 45.8 | > 45.8
COC(=O)CCC[N+](C)(C)C [Carpronium chloride] | > 45.8 | > 45.8
O=C(CC1NCCCC1O)Cn1cnc2cc(Br)c(Cl)cc2c1=O (centres undefined) [Halofuginone hydrochloride] | > 45.8 | > 45.8
OC[C@H]1OC(O)[C@H](O)[C@@H](O)[C@@H]1O (some centres undefined) [Dextrose] | > 45.8 | > 45.8
CCC1C(C)=NN=C(c2ccc(OC)c(OC)c2)c2cc(OC)c(OC)cc21 (centres undefined) [Tofisopam] | > 45.8 | > 45.8
CC(CC(C(N)=O)(c1ccccc1)c1ccccc1)N(C)C (centres undefined) [Aminopentamide sulfate] | > 45.8 | > 45.8
CCC1(CC)C(=O)NC(=O)N(C)C1=O [Metharbital] | > 45.8 | > 45.8
O=C1CN(/N=C/c2ccc(-c3ccc([N+](=O)[O-])cc3)o2)C(=O)N1 [Dantrolene sodium] | > 45.8 | > 45.8
CNC[C@H](O)c1cccc(O)c1 [Phenylephrine hydrochloride] | > 45.8 | > 45.8
Oc1ccc(O)cc1 [Hydroquinone] | > 45.8 | > 45.8
O=C(c1ccc(F)cc1)C1CCN(CCn2c(=O)[nH]c3ccccc3c2=O)CC1 [Ketanserin] | > 45.8 | > 45.8
OCc1cc([C@@H](O)CNCCCCCCOCCOCc2c(Cl)cccc2Cl)ccc1O | > 45.8 | > 45.8
